# Source: EP2710893A1, “Methods of treating autism spectrum disorders and compositions for same” (Theta Biomedical Consulting&development Co., Inc, priority 2009, dated 2011)
# How the values were obtained:
# [1] = tested on: brain blood vessel leakage; test: Evans blue extravasation (brain blood vessel leakage) in mice; type: in vivo
# Protocol: Male BALB/6 mice (6 weeks old, Jackson Laboratories, Bar Harbor, ME) were injected in their tail vein with 0.2 ml of Evans blue (0.4%). Binding of Evans blue to the albumin found in the blood prevents Evans blue from escaping the circulation and constitutes a good marker from extravasation in brain parenchyma.
# Brain blood vessel leakage was assessed with Evans blue extravasation at 2 hr following Evans blue and 30 min after intraperitoneal injection of NT. Mice were anesthetized with a single intraperitoneal injection of ketamine/xylazine ([…]), an intracardiac catheter was inserted in the left ventricle, blood was withdrawn, and 10 ml normal saline was administered intracardially to wash any Evans blue from the systemic circulation. The mice were then decapitated and the whole brain was removed. For brain extravasated Evans blue measurements, the brains were first weighed and the Evans blue was then extracted in 1 ml of N,N-dimethylformamide overnight at 55 °C and the optical density was measured at 620 nm using a PerkinElmer Luminescence Spectrophotometer (Perkin Elmer, Norwalk, CT). EB concentration was calculated using a standard curve and values were normalized to the tissue weight and expressed as arbitrary units/mg of tissue. Five animals per group were estimated to be sufficient for significant differences given the variability (<50%) observed. Results of Evans blue/mg tissue were expressed as mean ± SD of percent change from control. This statistical analysis was chosen because it permits the experimental results to be compared to their own control and avoids variability from experiment to experiment. Values were then compared using the non-parametric Mann-Whitney U test. Significance is denoted by p<0.05. In order to induce brain blood vessel leakage, the mice were either treated only with an intraperitoneal injection (0.5 ml) of NT (500 nmol/kg body weight) or first pretreated with the flavonoid luteolin (40 mg/kg body weight) mixed in olive kernel extract to permit solubilization and increased absorption of the lipid-soluble luteolin. The mice not treated with luteolin were pretreated the same way only with the vehicle in order to keep the conditions similar [olive kernel extract, obtained from Minerva Edible Oils, Athens, Greece (http://www.minerva.com.gr/)]. […] When the mice were treated with both IL-33 (1 microg/mouse) and NT, brain leakage was even greater (Fig. 3); IL-33 alone had no effect. Pretreatment with the same amount of luteolin as before inhibited brain blood vessel leakage by 50% (Fig. 3). Using more luteolin could inhibit the synergistic effect of IL-33 and NT.
# [2] = tested on: mast cells; test: Inhibition of mast cells; type: cell-based; conditions: Mast cell
compound,measurement,setting,value
neurotensin [NT],increase in brain blood vessel leakage,"[1]; intraperitoneal injection of NT 500 nmol/kg body weight, Evans blue extravasation 30 min after NT, percent change from control",150%
O=c1c(O)c(-c2ccc(O)c(O)c2)oc2cc(O)cc(O)c12 [Quercetin],inhibition at 10 µM,[2],80%
O=c1cc(-c2ccc(O)c(O)c2)oc2cc(O)cc(O)c12 [luteolin],inhibition of brain blood vessel leakage,"[1]; Figure 3 legend, intraperitoneal luteolin 10 min prior to injection of IL-33 plus NT",inhibited
same,inhibition of brain blood vessel leakage,"[1]; NT-induced leakage, pretreatment with luteolin 40 mg/kg body weight mixed in olive kernel extract",completely inhibited
same,inhibition of brain blood vessel leakage,"[1]; leakage induced by IL-33 (1 microg/mouse) and NT, pretreatment with luteolin 40 mg/kg body weight",50%
